These results are taken from patent publication US9480680B2, “Stable pharmaceutical composition of clopidogrel free base for oral and parenteral delivery” (priority 2013, dated 2016).

For series [1] the following is noted: cited from earlier work.
Another series deals with platelet aggregation. The note with it: cited from earlier work.
The conditions of series [2]: 5 min. An excerpt:
As used herein the disease or condition refers to any disease or condition which may be treated using clopidogrel containing medicine for the prevention of atherothrombotic events such as myocardial infarction, stroke, peripheral arterial disease, acute coronary syndrome, and cardio-vascular death.

For series [3] the following is noted: cited from earlier work. The source holds these as a separate data set.
For series [4] the following is noted: for Concentration, Aqueous Phase / Concentration, Oil Phase: 600 mg drug in 20 g soy bean oil + 20 g DI water, stirred at room temperature 24 hours, HPLC; for pH of aqueous phase: aqueous phase at end of partition study; for O/W partition ratio: soy bean oil / DI water, room temperature 24 hours. The procedure: In order to determine percentage of clopidogrel partitioning in oil and aqueous phases, a partition study was conducted using clopidogrel biosulfate and clopidogrel free base. 600 mg of drug was weighed out and added to a beak containing equal weight of soy bean oil and DI water (20 g each). Stir the mixture in room temperature for 24 hours. At the end of study, samples from both phases were withdrawn and tested by HPLC as described in Example 14. The pH of the aqueous phase were measured.

Each structure is given as a SMILES string. Like-named read-outs stand apart in the source and are kept apart here.

Consider `COC(=O)[C@@H](c1ccccc1Cl)N1CCc2sccc2C1` [Impurity C, methyl ( )-(R)-(o-chlorophenyl)-6,7-dihydrothieno[3,2-c]pyridine-5(4H)-acetate], for which the convulsions entry in series [1] (high doses of animals) is reported as “can evoke convulsions”. Also, the tolerability result in series [1] (in vivo) is “poorly tolerated”. Further, in the series on platelet aggregation, the anti-aggregation activity entry is listed as “does not exhibit any anti-aggregation activity”.

Consider `COC(=O)[C@H](c1ccccc1Cl)N1CCc2sccc2C1` [Clopidogrel free base, methyl (+)-(S)-α-(o-chlorophenyl)-6,7-dihydrothieno[3,2-c]pyridine-5(4H)-acetate], for which the “biological / pharmacological activity” value in the series with platelet aggregation is on record as “biologically active”. For the same compound, the “degradation in diluted NaOH solution” value in series [2] is on record as “degraded completely in 5 minutes”. Besides, the “solubility in ethyl ether” value in series [3] (ethyl ether) is listed as “practically insoluble”. Also, the “stability under increased moisture and temperature” value in series [3] is “unstable”. The solubility in methanol entry in series [3] (methanol) is on record as “dissolves freely”. Besides, the “solubility in methylene chloride” value in series [3] (methylene chloride) was “dissolves sparingly”. Further, the “solubility at pH 1” value in series [3] (pH 1) was “freely soluble”. Besides, the “solubility in water at neutral pH” value in series [3] (water, neutral pH) is listed as “practically insoluble”. Besides, in series [4], the “Concentration, Aqueous Phase” value amounted to 6 µg/mL; the “Concentration, Oil Phase” value is 29000 µg/mL; the “pH of aqueous phase” value came to 7; the O/W partition ratio worked out at 4833. Also, in series [4] (soy bean oil / DI water partition study, result in words), the “amount of clopidogrel in the aqueous phase” value was “negligible”.

With `O=C(O)[C@H](c1ccccc1Cl)N1CCc2sccc2C1` [Impurity A], in the series on platelet aggregation, the “biological / pharmacological activity” value is reported as “no pharmacological activity”.

Regarding `COC(=O)[C@H](c1ccccc1Cl)N1CCc2sccc2C1` [Clopidogrel bisulfate], the “stability under increased moisture and temperature” value in series [3] (listed as clopidogrel biosulfate) was “relatively unstable”. Besides, in series [4], the “Concentration, Aqueous Phase” value worked out at 15000 µg/mL; the “Concentration, Oil Phase” value was 17000 µg/mL; the “pH of aqueous phase” value came to 2; the O/W partition ratio is given as 1.1. Moreover, the “clopidogrel staying in the aqueous phase” value in series [4] (soy bean oil / DI water partition study) is “about 50%”.
